Laboratory results: ChEMBL document CHEMBL1201862, “PubChem BioAssay data set” (2004)
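Results reflect a 48-hour exposure of cells in 96-well plates to compound at five concentrations. GI50: concentration for 50% inhibition of growth.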 Active and inactive are the calls of the source. No stated cut-off is given here; in the data, active = GI50 up to about 1.1 µM and inactive = higher.

Assays:
Assay in all cases: DTP human tumour cell line panel, 48 h
XF498 = system: XF498
SNB-78 = system: SNB-78
HOP-18 = system: HOP-18
DLD-1 = system: DLD-1
KM-20L2 = system: KM-20L2
M19-MEL = system: M19-MEL
DMS-273 = system: DMS-273
RXF 631 = system: RXF 631

| SMILES | GI50 (XF498) | GI50 (SNB-78) | GI50 (HOP-18) | GI50 (DLD-1) | GI50 (KM-20L2) | GI50 (M19-MEL) | GI50 (DMS-273) | GI50 (RXF 631) |
| --- | --- | --- | --- | --- | --- | --- | --- | --- |
| CC(=O)C1=C(O)C2C3c4c[nH]c5cccc(c45)CC3C(C)(C)N2C1=O (stereo unspecified) | 51.4 µM (inactive) | > 100 µM (inactive) | 21.2 µM (inactive) | 40.8 µM (inactive) | 31.6 µM (inactive) | > 100 µM (inactive) | 27.5 µM (inactive) |  |
| Cc1cccc(C)c1N1C(=O)C(=O)C(c2nc3ccccc3s2)/C(=N\N)C1=O (stereo unspecified) |  | > 100 µM (inactive) | 49.7 µM (inactive) | > 100 µM (inactive) | > 100 µM (inactive) | > 100 µM (inactive) | > 100 µM (inactive) | > 100 µM (inactive) |
| O=C1C=C(O)C(=Cc2c(O)cc(O)cc2O)C(O)=C1 | > 100 µM (inactive) | > 100 µM (inactive) | > 100 µM (inactive) | > 100 µM (inactive) | > 100 µM (inactive) | > 100 µM (inactive) | > 100 µM (inactive) | > 100 µM (inactive) |
| CC(C)=CC(=O)CC(=O)C(=O)NCCNC(=O)C(=O)CC(=O)C=C(C)C | > 50 µM (inactive) | > 50 µM (inactive) | > 50 µM (inactive) | > 50 µM (inactive) | > 50 µM (inactive) | > 50 µM (inactive) | > 50 µM (inactive) |  |
| O=C1C/C(Br)=C\c2ccccc2-c2ccccc21 | 1.76 µM (inactive) | 3.85 µM (inactive) | 4.48 µM (inactive) | 1.11 µM (active) | 2.84 µM (inactive) | 1.87 µM (inactive) | 2.19 µM (inactive) |  |
| O=C(CCC(=O)Nc1ccc(Cl)cc1)CC(=O)c1ccc2ccccc2c1 |  | > 100 µM (inactive) | > 100 µM (inactive) | > 100 µM (inactive) | > 100 µM (inactive) | > 100 µM (inactive) | > 100 µM (inactive) | > 100 µM (inactive) |
| CC#COP(=O)(OCC)OCC |  | > 100 µM (inactive) |  | > 100 µM (inactive) | > 100 µM (inactive) | > 100 µM (inactive) |  | > 100 µM (inactive) |
| Cc1ccc(C2=NO[C@@H]3C(=O)N(c4ccc(Cc5ccc(N6C(=O)[C@H]7C(c8ccc(C)cc8)=NO[C@H]7C6=O)cc5)cc4)C(=O)[C@H]23)cc1 | > 100 µM (inactive) | > 100 µM (inactive) | > 100 µM (inactive) | > 100 µM (inactive) | > 100 µM (inactive) | > 100 µM (inactive) | > 100 µM (inactive) | > 100 µM (inactive) |
| C/C(=C1/CCCC2(N=NCC2c2ccccc2)C1=O)c1ccccc1 (stereo unspecified) | 17.4 µM (inactive) | 25.4 µM (inactive) | 51.1 µM (inactive) | 38.3 µM (inactive) | 25.6 µM (inactive) | 22.3 µM (inactive) | 15.9 µM (inactive) |  |
| Cc1ccccc1Cn1nc2ccccc2cc1=O | > 100 µM (inactive) | > 100 µM (inactive) | > 100 µM (inactive) | > 100 µM (inactive) | > 100 µM (inactive) | > 100 µM (inactive) | > 100 µM (inactive) |  |
| Fc1cccc2c1cc1ccc3cccc4ccc2c1c34 | > 100 µM (inactive) | > 100 µM (inactive) | > 100 µM (inactive) | > 100 µM (inactive) | > 100 µM (inactive) | > 100 µM (inactive) | > 100 µM (inactive) |  |
| C#CCNC(=O)NCCCC(NC(C)=O)C(=O)NCc1ccccc1 (stereo unspecified) |  | > 100 µM (inactive) | > 100 µM (inactive) | > 100 µM (inactive) | > 100 µM (inactive) | > 100 µM (inactive) |  | > 100 µM (inactive) |
| O=C1C=C2CCCC2C(C(=O)O)(C(=O)O)C1 (stereo unspecified) | > 100 µM (inactive) | > 100 µM (inactive) |  | > 100 µM (inactive) |  | > 100 µM (inactive) | > 100 µM (inactive) | > 100 µM (inactive) |
| COc1cc2c(c(OC)c1OC)-c1ccc(SC)c(=O)cc1[C@@H](NCc1ccc(F)cc1)CC2 | < 0.0075 µM (active) | < 0.0075 µM (active) | 9.1 µM (inactive) | < 0.0075 µM (active) | < 0.0075 µM (active) |  | < 0.0075 µM (active) | < 0.0075 µM (active) |
